Patent publication US20110236467A1, “METHOD FOR ERECTILE FUNCTION PO[…] PHARMACEUTICAL CO[…] TX2-6 OF THE SPIDER PHONEUTRIA NIGRIVENTER” (priority 2008, published 2011)
“Also recorded” adds a separate entry of the source.

System: nitric oxide synthase (NOS)
Assay: Blockage of nitric oxide synthase by L-NAME and Tx2-6 action on erectile function (ICP/MAP) in rats
Format: in vivo, rat
Description: The participation of nitric oxide, resulting from the toxin effect on erection, was tested by using a nonselective inhibitor of the nitric oxide synthase enzyme, L-NAME (L-N^G-nitro-arginine methyl ester), intracavernosally injected (200 mg/Kg) in normotensive rats treated with Tx2-6 (subcutaneously injected; 48 μg/Kg).
Nitric oxide (NO) is generated from the amino acid L-arginine by means of the NOS enzyme action. This synthesis occurs in different parts of the organism, including the corpus cavernosum. In this experiment, an inhibitor nonspecific for NOS (L-NAME, 200 mg/Kg) was injected intracavemosally.

## COC(=O)[C@@H](N)CCCNC(=N)N[N+](=O)[O-] [L-NAME, L-N^G-nitro-arginine methyl ester]
L-NAME 200 mg/Kg intracavernosal, submaximum stimulation
  effect of L-NAME on rat erectile function (ICP/AMP ratio): blocked rat erectile function; also recorded: significant blockage
L-NAME with Tx2-6
  effect of L-NAME on the potentiator effect of erection caused by the toxin (ICP/MAP relation): completely blocked
